For assay [1], the system named is MCF7. Kind of assay: Promotion of cell proliferation in human MCF7 cells. The format is functional, cell-based.
The target of the next assay is T1, Estrogen receptor (Homo sapiens, UniProt P03372).
T1 sequence (P03372 whole entry): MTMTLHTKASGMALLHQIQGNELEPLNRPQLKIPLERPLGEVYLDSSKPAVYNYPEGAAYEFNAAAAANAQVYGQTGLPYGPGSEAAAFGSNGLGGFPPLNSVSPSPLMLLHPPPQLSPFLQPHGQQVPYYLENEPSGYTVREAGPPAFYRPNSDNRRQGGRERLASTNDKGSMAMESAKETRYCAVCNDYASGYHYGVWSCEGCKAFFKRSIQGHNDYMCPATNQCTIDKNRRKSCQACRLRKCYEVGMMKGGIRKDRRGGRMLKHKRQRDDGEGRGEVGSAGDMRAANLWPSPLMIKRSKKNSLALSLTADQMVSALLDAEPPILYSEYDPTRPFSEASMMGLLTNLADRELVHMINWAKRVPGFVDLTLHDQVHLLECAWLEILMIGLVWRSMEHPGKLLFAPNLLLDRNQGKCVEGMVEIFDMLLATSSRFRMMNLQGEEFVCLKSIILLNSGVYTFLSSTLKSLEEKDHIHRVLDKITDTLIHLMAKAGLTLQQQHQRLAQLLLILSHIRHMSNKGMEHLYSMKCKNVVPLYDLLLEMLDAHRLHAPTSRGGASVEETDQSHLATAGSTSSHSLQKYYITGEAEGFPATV
In words: Agonist activity at human ERalpha expressed in african green monkey CV1 cells by luciferase reporter gene assay relative to 17beta estradiol. It counts as functional, cell-based, CV-1.

Assay [2] concerns HL-60. In words: Antiproliferative effect against human HL60 cells after 69 hrs. The format is functional, cell-based. The settings on record: HL-60, 69 h.
Assay [3] concerns HL-60. Kind of assay: Growth inhibition of human HL60 cells at 20 uM after 69 hrs. The format is functional. The conditions noted are these: HL-60, 69 h, read-out: GI.
Assay [4] deals with MCF7. In words: Antiproliferative effect against human MCF7 cells after 72 hrs by MTT assay. It counts as functional, cell-based. The settings on record: MCF7, 72 h. A general note: Formazan colour is commonly taken as a measure of viable cells.
For assay [5], the system named is MCF7. In words: Growth inhibition of human MCF7 cells at 20 uM after 72 hrs by MTT assay. The format is functional. The settings on record: MCF7, 72 h, read-out: GI.
The subject of assay [6] is HeLa. In words: Antiproliferative effect against human HeLa cells after 69 hrs by MTT assay. The format is functional, cell-based.
The subject of assay [7] is HeLa. In words: Growth inhibition of human HeLa cells at 20 uM after 69 hrs by MTT assay. The conditions noted are these: read-out: GI. It counts as functional.

What is called EC50 is the concentration that produces a half-maximal response. For the molecule `COc1cc([C@H]2O[C@@H](c3cc(OC)c4c(c3)OCO4)[C@@H](CO)[C@@H]2COC(C)=O)cc2c1OCO2`, the EC50 turned out to be 142 nM in the assay with MCF7 [1] and 3.1 µM on Estrogen receptor.
By IC50 is commonly meant the concentration that inhibits the measured activity by half. On to `C=C1C(=O)OCC1C(c1cc(OC)c(OC)c(OC)c1)c1cc(OC)c2c(c1)OCO2` (stereo not given), for which the IC50 in the assay on HL-60 [2] was determined as 1400 nM; in the assay with MCF7 [4] it was 3.8 µM; in the assay on HeLa [6], 9.1 µM. The inhibition of growth at 20 µM in the assay on HL-60 [3] came out at 92%; in the assay on MCF7 [5] it was 91%; in the assay on HeLa [7] it was 96%.
As for `COc1cc(OC)c(C2CCC(=O)c3c(OC)cc(OC)c(OC)c32)cc1OC` (stereo not given), the inhibition of growth at 20 µM was less than 5% in the assay on HL-60 [3], 37.6% with MCF7 [5] and less than 5% in the assay with HeLa [7].
In turn, `COc1cc(C(c2cc(OC)c3c(c2)OCO3)[C@@H]2COC(=O)[C@H]2C)cc(O)c1OC` (relative stereo) came in with an IC50 in the assay with HL-60 [2] of 10800 nM. Moreover, the inhibition of growth at 20 µM with HL-60 [3] was 92%; with MCF7 [5] it was 53.2%; in the assay on HeLa [7], 10%.
Regarding `COc1cc([C@@H]2c3cc4c(cc3[C@@H](O[C@@H]3O[C@@H]5CO[C@@H](C)O[C@H]5[C@H](O)[C@H]3O)[C@H]3COC(=O)[C@H]23)OCO4)cc(OC)c1O` [ETOPOSIDE], the figures for the IC50 in the assay with HL-60 [2], in the assay with MCF7 [4] and with HeLa [6] were 210 nM, 0.19 µM and 3.6 µM, respectively. For the same molecule, the inhibition of growth at 20 µM in the assay with HL-60 [3] turned out to be 93.5%; in the assay on MCF7 [5], 73.5%; in the assay on HeLa [7] it was 85.3%.
Consider `COc1cc(C(c2cc(OC)c3c(c2)OCO3)[C@@H]2COC(=O)[C@H]2C)cc2c1OCO2` [PEPEROMIN A], for which the inhibition of growth at 20 µM is 17% with HL-60 [3], 27.7% with MCF7 [5] and less than 5% with HeLa [7].
As for `C=C1C(=O)OC[C@H]1C(c1cc(OC)c2c(c1)OCO2)c1cc(OC)c2c(c1)OCO2` [PEPEROMIN E], the results for the IC50 in the assay with HL-60 [2], with MCF7 [4] and in the assay on HeLa [6] were 1800 nM, 3.9 µM and 11.1 µM, respectively. The results for the inhibition of growth at 20 µM with HL-60 [3], with MCF7 [5] and in the assay with HeLa [7] were 93%, 90.7% and 95%, respectively.

The values are drawn from ChEMBL document CHEMBL1157251, “Bioactive compounds from Peperomia pellucida” (J Nat Prod, 2006).
